According to patent publication EP2823816A1, “Inhibitors of Neuropilin and use thereof for the treatment of Neuropilin-related diseases” (Tragex Pharma, priority 2013, dated 2015):

How the values were obtained:
A549 = assay: WST-1 proliferation / cytotoxic test; assay type: cell-based; settings: Homo sapiens, Lung, wst-1 cytotoxic test, 72 h
Description: (§1) After observation of cells under the microscope, old media were removed and the adherent cells washed gently twice with PBS (Phosphate Buffer Saline, -Ca^2+, -Mg^2+, Lonza cat n°: 17-512F/12). All cells were detached with 3 ml of trypsin/EDTA (chelator of calcium and magnesium ions) (Lonza), incubated for 5 min at 37°C, and examined using a microscope to ensure that the cells were detached and floating. Then, 3 ml TNS (Trypsin Neutralizing Solution, Lonza, France, cat n° CC-5002) or of culture medium were added to inactivate the trypsin, and the cell suspension was transferred in a falcon tube and centrifuged for 7 min at 1400 rpm. The supernatant was removed and the cell pellet resuspended in […] of culture medium. 50 µL of this solution were transferred in 20 µL of isotonic solution and the cells were counted by count cellular (Beckman Coulter). At day 0, 200 µL of cellular suspension (3.10^3 cells/well for the HUVEC cells, breast cancer cells (MDA-MB-231 1.10^4 cells/well, MDA-MB-468 2.10^4 cells/well,); cervical cancer cells (HeLa 5.000 cells/well); colon cancer cells (HCT-116 5.10^3 cells/well, HCT-29 1.1.10^4 cells/well); pancreas cancer cells (Panc-10.5 1.5.10^4 cells/well); brain cancer cells (U87 5.10^3 cells/well, SH-SYSY 8.10^4 cells/well); Lung cancer cells (A 549 1.10^4 cells/well, NCI-H460 1.10^4 cells/well); fibrosarcoma cells (HT 1080 8.10^3 cells/well); Burkitt's lymphoma cells (DAUDI 3.10^4 cells/well); acute lymphoblastic leukemia cells (CEM 3.10^4 cells/well); chronic myeloid leukemia cells (ERY 5.10^4 cells/well); mantle cell lymphoma (GRANTA 1.10^5 cells/well); B lymphoma cells (VAL 1.10^5 cells/well)) were then plated on 96 well plates and incubated at 37°C in a humidified atmosphere of 5% CO2 for 24 h.
(§2) At day 1, the compound 1 of the invention was added at increasing concentrations (0.1 - 10 µM) in the wells and plates were incubated at 37°C in a humidified atmosphere of 5% CO2 for 72 h.
(§3) The cell proliferation WST-1 assay is a colorimetric assay for the quantification of cell proliferation and viability, based on the enzymatic cleavage of the tetrazolium salt WST-1 added to the culture medium, to a water soluble colored formazan dye, detected by absorbance at 450 nm, by mitochondrial succinate-tetrazoliumreductase in viable cells. An augmentation in enzyme activity will then lead to an increase in the amount of formazan dye formed, which directly correlates to the number of metabolically active cells in the culture.
(§4) After an incubation period of 72 h, at day 4, were prepared the 19 mL medium with reagent WST-1 1mL ([…]). The medium was removed from the 96 microplate and 200 µL of solution WST-1/medium were added for each well. The cells were incubated at 37°C in a humidified atmosphere of 5% CO2 for 1h30 and the absorbance at 450-655 nm was measured by Microplate Manager 5.2 (Bio-Rad).

Granta-519 = assay: WST-1 proliferation / cytotoxic test; assay type: cell-based; settings: Homo sapiens, Mantle cell lymphoma, wst-1 cytotoxic test, 72 h
Description: as §1, §2, §3, §4

SH-SY5Y = assay: WST-1 proliferation / cytotoxic test; assay type: cell-based; settings: Homo sapiens, Brain, wst-1 cytotoxic test, 72 h
Description: as §1, §2, §3, §4

DAUDI = assay: WST-1 proliferation / cytotoxic test; assay type: cell-based; settings: Homo sapiens, Burkitt's lymphoma, wst-1 cytotoxic test, 72 h
Description: as §1, §2, §3, §4

HCT-116 = assay: WST-1 proliferation / cytotoxic test; assay type: cell-based; settings: Homo sapiens, Colon, wst-1 cytotoxic test, 72 h
Description: as §1, §2, §3, §4

Panc-10.5 = assay: WST-1 proliferation / cytotoxic test; assay type: cell-based; settings: Homo sapiens, Pancreas, wst-1 cytotoxic test, 72 h
Description: as §1, §2, §3, §4

HT-1080 = assay: WST-1 proliferation / cytotoxic test; assay type: cell-based; settings: Homo sapiens, Fibrosarcoma, wst-1 cytotoxic test, 72 h
Description: as §1, §2, §3, §4

U87 = assay: WST-1 proliferation / cytotoxic test; assay type: cell-based; settings: Homo sapiens, U-87 MG, Brain, wst-1 cytotoxic test, 72 h
Description: as §1, §2, §3, §4

MDA-MB-468 = assay: WST-1 proliferation / cytotoxic test; assay type: cell-based; settings: Homo sapiens, Breast, wst-1 cytotoxic test, 72 h
Description: as §1, §2, §3, §4

VAL = assay: WST-1 proliferation / cytotoxic test; assay type: cell-based; settings: Homo sapiens, B lymphoma, wst-1 cytotoxic test, 72 h
Description: as §1, §2, §3, §4

NCI-H460 = assay: WST-1 proliferation / cytotoxic test; assay type: cell-based; settings: Homo sapiens, Lung, wst-1 cytotoxic test, 72 h
Description: as §1, §2, §3, §4

CEM = assay: WST-1 proliferation / cytotoxic test; assay type: cell-based; settings: Homo sapiens, CCRF-CEM, Acute lymphoblastic leukemia, wst-1 cytotoxic test, 72 h
Description: as §1, §2, §3, §4

HT-29 = assay: WST-1 proliferation / cytotoxic test; assay type: cell-based; settings: Homo sapiens, Colon, wst-1 cytotoxic test, 72 h
Description: as §1, §2, §3, §4

HeLa = assay: WST-1 proliferation / cytotoxic test; assay type: cell-based; settings: Homo sapiens, Cervical, wst-1 cytotoxic test, 72 h
Description: as §1, §2, §3, §4

ERY-1 = assay: WST-1 proliferation / cytotoxic test; assay type: cell-based; settings: Homo sapiens, Chronic myeloid leukemia, wst-1 cytotoxic test, 72 h
Description: as §1, §2, §3, §4

MDA-MB-231 cancer cells = assay: Motility assay (videomicroscopy); assay type: cell-based, human; settings: MDA-MB-231, 24 h, at the IC50 of the proliferation assay, Figure 4
Description: Endothelial cells (HUVEC) and breast cancer cells (MDA-MB-231) were seeded in 35 mm diameter tissue culture dishes at 3×10^4 and 6×10^4 cells per dish respectively and treated separately with DMSO (control) and compound 1 of the invention (treatment) for 24 h, at the concentration of IC50 obtained with the proliferation assay.
The dishes were placed in an enclosed warming incubator on the motorized stage of a computer-controlled Eclipse Ti inverted microscope (Nikon Instruments Europe) equipped with a CCD Cool- SNAP HQ2 camera (Roper Scientific, USA) and a PC workstation. The incubator allowed samples to be kept at 37°C in a humidified atmosphere containing 5% CO2, 95% air. Phase images were recorded at 100× every 5 min simultaneously over several fields from 0 till 24 h (288 frames). Cell motility was tracked and analyzed for at least 25 cells in each field over three independent experiments. The total distance of migration and the speed of migration were analyzed. The degree of persistence of movement was defined as the ratio between the linear distance and the total distance covered by the cells. Image acquisition and analyses were carried out using Metamorph7 software (Universal Imaging).

MDA-MB-231 = assay: WST-1 proliferation / cytotoxic test; assay type: cell-based, human; settings: for IC50: Homo sapiens
Description: (§5) After observation of cells under the microscope, old media were removed and the adherent cells washed gently twice with PBS (Phosphate Buffer Saline, -Ca^2+, -Mg^2+, Lonza cat n°: 17-512F/12). All cells were detached with 3 ml of trypsin/EDTA (chelator of calcium and magnesium ions) (Lonza), incubated for 5 min at 37°C, and examined using a microscope to ensure that the cells were detached and floating. Then, 3 ml TNS (Trypsin Neutralizing Solution, Lonza, France, cat n° CC-5002) or of culture medium were added to inactivate the trypsin, and the cell suspension was transferred in a falcon tube and centrifuged for 7 min at 1400 rpm. The supernatant was removed and the cell pellet resuspended in […] of culture medium. 50 µL of this solution were transferred in 20 µL of isotonic solution and the cells were counted by count cellular (Beckman Coulter). […]
(§6) The cell proliferation WST-1 assay is a colorimetric assay for the quantification of cell proliferation and viability, based on the enzymatic cleavage of the tetrazolium salt WST-1 added to the culture medium, to a water soluble colored formazan dye, detected by absorbance at 450 nm, by mitochondrial succinate-tetrazoliumreductase in viable cells. […]
After an incubation period of 72 h, at day 4, were prepared the 19 mL medium with reagent WST-1 1mL (10 mL WST-1 in 200 mL well). […] The cells were incubated at 37°C in a humidified atmosphere of 5% CO2 for 1h30 and the absorbance at 450-655 nm was measured by Microplate Manager 5.2 (Bio-Rad).

HUVEC cells = assay: WST-1 proliferation assay; assay type: cell-based; settings: in vitro, Figure 1B
Description: as §5, §6

SMILES: CCOc1ccccc1NC(=O)c1ccc(C)c(S(=O)(=O)Nc2ccc(C)cc2)c1 [Compound 1, N-(2-ethoxyphenyl)-4-methyl-3-(N-(p-tolyl)sulfamoyl)benzamide]
- IC50 (A549): 400 ± 30 nM
- IC50 (Granta-519): 500 ± 70 nM
- IC50 (SH-SY5Y): 100 ± 20 nM
- IC50 (DAUDI): 500 ± 20 nM
- IC50 (HCT-116): 500 ± 70 nM
- IC50 (Panc-10.5): 500 ± 40 nM
- IC50 (HT-1080): 300 ± 10 nM
- IC50 (U87): 500 ± 20 nM
- IC50 (MDA-MB-468): 500 ± 60 nM
- IC50 (VAL): 1000 ± 60 nM
- IC50 (NCI-H460): 500 ± 70 nM
- IC50 (CEM): 100 ± 80 nM
- IC50 (HT-29): 500 ± 10 nM
- IC50 (HeLa): 200 ± 60 nM
- IC50 (ERY-1): 200 ± 30 nM
- motility of cancer cells (migration speed) (MDA-MB-231 cancer cells): significant anti-migratory effect
- IC50 (MDA-MB-231; Breast, MDA-MB-231, wst-1 cytotoxic test, 72 h): 700 ± 80 nM
- IC50 (MDA-MB-231; inhibition of proliferation, clone MDA-MB-231 (Table 2)): 700 ± 50 nM
- proliferation of MDA-MB-231 cells (MDA-MB-231; in vitro, Figure 3B): inhibits
- proliferation of HUVEC cells (HUVEC cells): inhibited
